Earlier results on one substance are cited in patent US20100004582A1, “Wide-Area Parasystemic Treatment of Skin Related Conditions” (PANTEC BIOSOLUTIONS AG, priority 2006, published 2010).

The subject of this data set is psoriasis. The following applies: conventional efalizumab treatment, not via porated skin.

Take efalizumab: the “patients in whom treatment attenuated the disease” value is 22-28 % of patients.
